How the values were obtained:
[1] = test system: purified catalytic subunit of PKA; experiment: PKA kinase assay on membrane-spotted Src peptides, phospho-PKA substrate antibody; format: biochemical; details: 12.5 nM PKA catalytic subunit, 30° C., 30 minutes
Text: A peptide identical to amino acids 9-25 within the N-terminus of wild-type Src (WT) (KDASQRRRSLEPAENVH; SEQ ID NO: 12), which contains the potential PKA phosphorylation site (underlined), was generated using an Auto-Spot Robot ASP 222 (ABiMED, Langenfeld, Germany) and spotted onto a nitrocellulose membrane. Control peptides with serines 12 and/or 17 replaced by alanine (S12A, SEQ ID NO: 13; S17A, SEQ ID NO: 14; and S12AS17A, SEQ ID NO: 15), serine 17 replaced by aspartate (S17D, SEQ ID NO: 16), and arginines at 14-16 replaced by alanine (R14A, SEQ ID NO: 17; • R15A, SEQ ID NO: 18; R16A, SEQ ID NO: 19), as well as peptides designed to both a scrambled (SEQ ID NO: 20) and an unrelated (FLAG) sequence (SEQ ID NO: 21), were also generated and spotted onto the membrane.
Using a method previously described (Tegge et al., Biochen. 34:10569-77, 1995), the membranes were pre-incubated at room temperature (RT) overnight (ON) in buffer containing 20 mM Hepes, pH 7.4, 100 mM NaCl, 2 mM MgCl2, 1 mM EDTA, 1 mM DTI, and 0.2 mg/ml BSA. Membranes were then blocked at 30° C. for one hour in buffer containing 20 mM Hepes, pH 7.4, 100 mM NaCl, 2 mM MgCl2, 1 mM EDTA, 1 mM DTT, and 1 mg/ml BSA and 30 μM cold ATP. […] The membranes were then blocked, probed, and analyzed using chemiluminescence according the manufacturers guidelines for the phospho-PKA substrate antibody. […]

Src++ and SYF cells = experiment: MTT assay for cell proliferation; format: cell-based, mouse; details: for Stimulation of cell growth: SYF cells, 48 hours
Protocol: To determine the effect of Src on cell proliferation, the following protocol was used. Src^++ and SYF cells were serum-starved overnight and plated onto 96 well plates. Cells were then treated with PDGF, EGF, Forskolin, H89, and/or PD98059 (PD, 10 μM, Cal Biochem). Cells were analyzed 48 hours later by MTT assay and data quantified (n=4±S.E.). The MTT assay for cell proliferation was conducted as follows (Schmitt and Stork, Mol. Cell. Biol. 21:3671-83, 2001). Briefly, 2.5 hours prior to lysis, 20 μl of sterile […] MTT (Sigma) was added to the cells and allowed to incubate at 37° C. At the appropriate time, cells were lysed and proteins solubilized in 50% volume/volume H2O and N,N,-dimethylformamide containing 20% SDS, 0.5% of 80% acetic acid, and 0.4% 1M HCL Plates were read using a microplate reader and presented as the difference between optical densities at […].
To quantitate cell proliferation, cells were analyzed 48 hours later by MTT assay (see EXAMPLE 3) and data was quantified (n=4±S.E.). […] Expression of Flag-Src in SYF cells restored Forskolin's ability to inhibit PDGF- and EGF-mediated cell growth.

Src = Src autophosphorylation at tyrosine 416 (Western blot); format: cell-based; details: SYF cells
Protocol: To examine the mechanism of cAMP regulation of Src, Src kinase activity was assayed in vivo by monitoring autophosphorylation of Src at tyrosine 416 (Tyr416) using previously disclosed methods (Brown and Cooper, Biochim. Biophys. Acta 1287:121-49, 1996; Martin, Nat. Rev. Mol. Cell. Biol. 2:467-75,2001).
[…] Cell lysates were prepared, and Src immunopreciptiated and analyzed by Western blot for either tyrosine phosphorylation at site 416 (p416Src) using phospho-Src (Tyr416) antibodies (Cell Signaling Technology), Flag-Src, or analyzed by Western blot for either PKA phosphorylation or Src (using Src antibodies, Santa Cruz Biotechnology Inc.), using the methods described above. Alternatively, Flag-Src was immunoprecipitated from the cell lysates and analyzed by Western blot for either Cb1 or Flag-Src.
The activation of wild type Src by Forskolin was confirmed by observing autophosphorylation of Src at Tyr416 and using an in vitro kinase assay. To measure autophosphorylation of Src at Tyr416, SYF cells were transfected with either Flag-Src (WT) or Flag-SrcS17A and treated with Forskolin and PDGF or EGF, as described above. Flag-Src was immunoprecipitated from cell lysates and analyzed by Western blot for either phosphorylation of Src on Tyr416 or the presence of Flag-Src. […]

Rap1 = Rap1 activation affinity assay (GST-RalGDS pull-down), NIH3T3 cells; format: cell-based; details: NIH3T3 cells, 10 μM, five minutes
Protocol: NIH3T3 cells (American Type Culture Collection, ATCC, Manassas, Va.) were cultured in Dulbecco-Modified Eagle Medium (DMEM) plus 10% fetal calf serum, penicillin/streptomycin, and L-glutamine at 37° C. in 5% CO2. Cells were maintained in serum-free DMEM for 16 hours at 37° C. in 5% CO2 prior to treatment. NIH3T3 cells were trasfected with Flag-Rap1 (see Vossler et al., Cell, 89:73-82, 1997) or stimulated with Forskolin (10 μM, Cal Biochem, Riverside, Calif.) for five minutes. Forskolin treated cells received either a pretreatment or post-treatment with 10 μM N-[2(Bromocimamylamino) ethyl]-5-isoquinolinesulfonamide (H89) (Cal Biochem, Riverside, Calif.) for 20 minutes.
Cells were co-transfected with Flag-Rap1 at seventy to eighty percent confluency with the cDNA using a Lipofectamine 2000 kit (Gibco BRL, Rockville, Md.) according to the manufacturer's instructions. The control vector, pcDNA3 (Invitrogen Corp.), was included in each set of transfections to assure that each plate received the same amount of DNA. Following transfection, cells were allowed to recover in serum containing media for 24 hours. Cells were then starved overnight in serum-free DMEM before treatment and lysis.
After treatment, cells were lysed in ice-cold lysis buffer (50 mM Tris-HCL (pH 8.0), 10% glycerol, 1% nonidet P40, 200 mM NaCl, 2.5 mM MgCl2, 1 mM phenylmethylsulfonyl fluoride, 1 μM leupeptin, 10 μln soybean trypsin inhibitor, 10 mM NaF, 0.1 μM aprotinin, and 1 mM NaVO4). Nuclei and cytoskeleton were removed from equivalent amounts of lysate by centrifugation at 5,000 rpm for five minutes. The supernatant was centrifuged at 100,000×g for one hour at 4° C. and, the resultant membrane was resuspended in cold lysis buffer. Aliquots of the membrane fraction were analyzed for the presence of C3G by Western blotting. The cytosolic or membrane fractions of treated or untreated cells were mixed with equivalent amounts of lysates from untreated Flag-Rap1 transfected cells. The mixture was incubated at 37° C. for five minutes and equal amounts of lysate were analyzed using the Rap1 activation assay to monitor Flag-Rap 1 activation by Gst-RalGDS.
The Rap1 activation affinity assay was performed as follows. A GST fusion protein of the Rap1-binding domain of RalGDS (GST-RalGDS, Dr. Bos, Utrecht University, The Netherlands) was expressed in E. coli following induction by isopropyl-1thio-β-D-galactopyranoside. Active Rap1 was isolated as previously described (Franke et al., EMBO J. 16:252-9, 1997). Briefly, equivalent amounts of supernatants (500 μg) were incubated with GST-RalGDS-Rap1 binding domain coupled to glutathione beads. Following a one hour incubation at 4° C., beads were pelleted and rinsed threes times with ice-cold lysis buffer. […] Proteins were detected using enhanced chemiluminescence.

[2] = test system: T1, Src 9-25 control peptide S12A
T1 sequence: KDAAQRRRSLEPAENVH

[3] = test system: T2, peptide identical to amino acids 9-25 within the N-terminus of wild-type Src (WT)
T2 sequence: KDASQRRRSLEPAENVH

Molecule: S12A: control Src 9-25 peptide with serine 12 replaced by alanine (KDAAQRRRSLEPAENVH)
- Recognition by phospho-PKA substrate antibody after PKA kinase assay [1]: recognized

Molecule: platelet-derived growth factor [PDGF]
- Stimulation of cell growth (Src++ and SYF cells): stimulated SYF cell growth
- Activation of wild type Src and SrcS17A by growth factor (Src): activated both wild type Src and SrcS17A equally

Molecule: KDASQRRRSLEPAENVH (listed as Homo sapiens) [WT, peptide identical to amino acids 9-25 of wild-type Src]
- Recognition by phospho-PKA substrate antibody after PKA kinase assay [1]: recognized

Molecule: epidermal growth factor [EGF]
- Stimulation of cell growth (Src++ and SYF cells): stimulated SYF cell growth
- Activation of wild type Src and SrcS17A by growth factor (Src): activated both wild type Src and SrcS17A equally

Molecule: prostaglandin E [PGE1]
- Activation of endogenous Rap1 (Rap1): activated Rap1

Molecule: purified catalytic subunit of PKA
- phosphorylation of spotted peptide, detected with the phospho-PKA substrate antibody [2]: Only the peptides containing Ser17 and adjacent arginines (WT and S12A) were recognized by the antibody, consistent with the consensus PKA recognition motif.
- phosphorylation of spotted peptide, detected with the phospho-PKA substrate antibody [3]: Only the peptides containing Ser17 and adjacent arginines (WT and S12A) were recognized by the antibody, consistent with the consensus PKA recognition motif.

Molecule: COc1cccc(-c2cc(=O)c3ccccc3o2)c1N [PD98059]
- PDGF stimulation of proliferation in presence of MEK inhibitor (Src++ and SYF cells; Src++ and SYF cells, 10 μM): dependent on ERK signaling
- Effect on PDGF- and EGF-stimulated SYF cell growth (Src++ and SYF cells; transfected SYF cells, pretreatment): blocked
